Like-named read-outs stand apart in the source and are kept apart here.

For data set [1], the system named is CPT-K5. The data set can be described thus: Test B: MTT-microtiter plate tetrazolinium cytotoxicity assay, CPT-K5 (camptothecin-resistant variant). It counts as cell-based. Particulars: Homo sapiens, CPT-K5, 96 h, read-out: Cytotoxicity IC50 CPT-K5. Here is the method:
(§1) The cytotoxicity was determined using the MTT-microtiter plate tetrazolinium cytotoxicity assay (MTA—See Mosmann, T., J. Immunol. Methods 1983, 65, 55-63; Carmichael, J., et al., Cancer Res. 1987, 47, 936-942; and Denizot, F., et al., J. Immunol. Methods 1986, 89, 271-277). […] The cytotoxicity assay was performed using 96-well microtiter plates. Cells were grown in suspension at 37° C. in 5% CO2 and maintained by regular passage in RPMI medium supplemented with 10% heat-inactivated fetal bovine serum, L-glutamine (2 mM), penicillin (100 U/mL), and streptomycin (0.1 mg/mL). […] For determination of IC50, cells were exposed continuously for 4 days to varying concentrations of drug, and MTT assays were performed at the end of the fourth day. […] All assays were performed at least twice in 6 replicate wells.

Data set [2] relates to RPMI 8402. The data set can be described thus: Test B: MTT-microtiter plate tetrazolinium cytotoxicity assay, RPMI 8402. It counts as cell-based. The note with it: Homo sapiens, RPMI 8402, 96 h, read-out: Cytotoxicity IC50 RPMI 8402. The procedure:
as §1

For data set [3], the system named is P388. Nature of the data set: MTT cytotoxicity assay, P388. It is filed as cell-based. Particulars: Mus musculus, P388, 96 h, read-out: Cytotoxicity IC50 P388. Here is the method:
as §1
A general note: Tetrazolium dyes change colour on reduction, which living cells bring about.

The target of data set [4] is T1, human topoisomerase I (Homo sapiens, UniProt P11387).
T1 construct: unnamed fusion partner (recombinant fusion protein, T7 expression system); made in house; host or cells: E. coli
T1 sequence (P11387 1-765): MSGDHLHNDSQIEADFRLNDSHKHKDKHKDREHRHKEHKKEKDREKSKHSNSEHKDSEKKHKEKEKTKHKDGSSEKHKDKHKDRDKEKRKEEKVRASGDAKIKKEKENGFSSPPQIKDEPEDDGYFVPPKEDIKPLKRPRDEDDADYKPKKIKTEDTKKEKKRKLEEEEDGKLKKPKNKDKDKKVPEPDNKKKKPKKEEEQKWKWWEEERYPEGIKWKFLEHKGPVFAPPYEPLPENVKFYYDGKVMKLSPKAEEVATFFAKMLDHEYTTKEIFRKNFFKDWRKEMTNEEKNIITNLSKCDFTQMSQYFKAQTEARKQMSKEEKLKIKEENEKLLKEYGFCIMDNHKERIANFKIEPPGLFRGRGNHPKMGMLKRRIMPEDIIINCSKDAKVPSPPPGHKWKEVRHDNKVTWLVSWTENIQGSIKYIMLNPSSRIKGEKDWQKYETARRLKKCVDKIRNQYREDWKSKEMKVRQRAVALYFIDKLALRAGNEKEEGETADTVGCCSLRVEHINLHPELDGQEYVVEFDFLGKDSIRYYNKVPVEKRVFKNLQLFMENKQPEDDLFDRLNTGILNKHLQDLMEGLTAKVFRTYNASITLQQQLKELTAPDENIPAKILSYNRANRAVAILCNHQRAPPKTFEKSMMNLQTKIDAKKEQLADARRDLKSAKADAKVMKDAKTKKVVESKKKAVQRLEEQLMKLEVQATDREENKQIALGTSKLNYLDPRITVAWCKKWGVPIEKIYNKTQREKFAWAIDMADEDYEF
The data set can be described thus: Test A: topoisomerase I-mediated DNA cleavage assay. It counts as biochemical. The note with it: concentration relative to topotecan (=1) producing the same cleavage on plasmid DNA in presence of human TOP1. The text has this: Test A. Topoisomerase-Mediated DNA Cleavage Assays
Human topoisomerase I was expressed in E. Coli and isolated as a recombinant fusion protein using a T7 expression system as described by Gatto, B., et al., Cancer Res. 1996, 56, 2795-2800. Plasmid YepG was purified by the alkali lysis method followed by phenol deproteination and CsCl/ethidium isopycnic centrifugation method as described by Maniatis, T., et al., J. Molecular Cloning, a Laboratory Manual; Cold Spring Harbor Laboratory: Cold Spring Harbor, N.Y. 1982; pp 149-185. The end-labeling of the plasmid was accomplished by digestion with a restriction enzyme followed by end-filling with Klenow polymerase as previously described by Tewey, K. M., et al., Science 1984, 226, 466-468. The cleavage assays were performed as previously reported (see Gatto, B., et al., Cancer Res. 1996, 56, 2795-2800; and Wang, H., et al., Biochemistry 2001, 40; 3316-3323). The drug and the DNA in presence of topoisomerase I was incubated for 30 minutes at 37° C. The reactions were terminated by the addition of 5 μl of 5% SDS and 1 mg/ml […] with an additional 1 hour of incubation at 37° C. Samples were then alkali denatured by the addition of NaOH, EDTA, sucrose, and bromophenol blue to final concentrations of 75 mM, 2.5%, and 0.05 mg/ml, respectively, prior to loading onto a neutral agarose gel. After development of the gels, typically 24-hour exposure was used to obtain autoradiograms outlining the extent of DNA fragmentation.

Data set [5] has as its system P388/CPT45. Nature of the data set: MTT cytotoxicity assay, P388/CPT45. It counts as cell-based. The note with it: Mus musculus, P388CPT45, 96 h, read-out: Cytotoxicity IC50 P388/CPT45. The procedure: as §1

In the case of `COc1cc2c(=O)n(CCN(C)C)c3c4ccccc4nnc3c2cc1OC` [Compound 12b, 11-(2-Dimethylaminoethyl)-2,3-dimethoxy-11H-5,6,11-triazachrysen-12-one, reference compound], the IC50 in data set [1] was 1500 nM; in data set [2] it was 18 nM.
For `COc1cc2c(=O)n(CCN(C)C)c3c4cccc(N)c4ncc3c2cc1OC` [Compound 4a, 1-Amino-8,9-dimethoxy-5-[2-(N,N-dimethylamino)ethyl]-5H-dibenzo[c,h][1,6]naphthyridin-6-one], the melting point (commonly the temperature of the solid-liquid transition) lay in the range of 226 to 229 °C. In addition, the IC50 in data set [3] came out at 350 nM. The “TOP1-mediated DNA Cleavage (REC, relative effective concentration)” value in data set [4] was 100. For the same compound, the IC50 in data set [1] was 2000 nM. Besides, the IC50 in data set [2] was determined as 650 nM. Also, the IC50 in data set [5] is 210 nM.
With `COc1cc2c(=O)n(CCN(C)C)c3c4ccccc4ncc3c2cc1OC` [Compound 5, 8,9-Dimethoxy-5-[2-(N,N-dimethylamino)ethyl]-5H-dibenzo[c,h]1,6-naphthyridin-6-one, reference compound], the IC50 in data set [3] was found to be 70 nM; in data set [1], 1650 nM; in data set [2], 100 nM; in data set [5], 300 nM. For the same compound, the “TOP1-mediated DNA Cleavage (REC, relative effective concentration)” value in data set [4] was 10.
Compound `COc1cc2c(=O)n(CCN(C)C)c3c4cc([N+](=O)[O-])ccc4ncc3c2cc1OC` [Compound 3c, 8,9-Dimethoxy-3-nitro-5-[2-(N,N-dimethylamino)ethyl]-5H-dibenzo[c,h][1,6]naphthyridin-6-one] showed a melting point of 232 to 234 °C. The IC50 in data set [3] came to 40 nM. Further, in data set [4], the “TOP1-mediated DNA Cleavage (REC, relative effective concentration)” value turned out to be 2. Moreover, the IC50 in data set [1] turned out to be 800 nM. The IC50 in data set [2] is 18 nM. Also, the IC50 in data set [5] was determined as 200 nM.
Turning to `COc1cc2c(=O)n(CCN(C)C)c3c(cnc4cccc(N)c43)c2cc1OC` [Compound 4d, 4-Amino-8,9-dimethoxy-5-[2-(N,N-dimethylamino)ethyl]-5H-dibenzo[c,h][1,6]-naphthyridin-6-one], the melting point lay within 239 to 241 °C. The IC50 in data set [3] was 3000 nM. The “TOP1-mediated DNA Cleavage (REC, relative effective concentration)” value in data set [4] is recorded as above 300. Further, the IC50 in data set [1] stood at 8000 nM. Further, the IC50 in data set [2] is 4000 nM. The IC50 in data set [5] was determined as 3500 nM.
As for `COc1cc2c(=O)n(CCN(C)C)c3c4ccc([N+](=O)[O-])cc4ncc3c2cc1OC` [Compound 3b, 8,9-Dimethoxy-2-nitro-5-[2-(N,N-dimethylamino)ethyl]-5H-dibenzo[c,h][1,6]naphthyridin-6-one], the melting point was 214 to 217 °C. Further, in data set [3], the IC50 came out at 30 nM. In addition, the “TOP1-mediated DNA Cleavage (REC, relative effective concentration)” value in data set [4] is recorded as 6. For the same compound, the IC50 in data set [1] turned out to be 3350 nM. In addition, in data set [2], the IC50 was found to be 75 nM. Besides, in data set [5], the IC50 is 340 nM.
`COc1cc2c(=O)n(CCN(C)C)c3c4cc(N)ccc4ncc3c2cc1OC` [Compound 4c, 3-Amino-8,9-dimethoxy-5-[2-(N,N-dimethylamino)ethyl]-5H-dibenzo[c,h][1,6]naphthyridin-6-one] returned a melting point of 213 to 215 °C. Moreover, in data set [3], the IC50 was found to be 20 nM. Further, the “TOP1-mediated DNA Cleavage (REC, relative effective concentration)” value in data set [4] is given as 6. Also, in data set [1], the IC50 was 1350 nM. For the same compound, in data set [2], the IC50 worked out at 40 nM. Further, the IC50 in data set [5] came out at 330 nM.
Regarding `COc1cc2c(=O)n(CCN(C)C)c3c4cc([N+](=O)[O-])ccc4nnc3c2cc1OC` [Compound 12a, 11-(2-Dimethylaminoethyl)-2,3-dimethoxy-9-nitro-11H-5,6,11-triazachrysen-12-one], the melting point was 262 to 264 °C (dec.). The IC50 in data set [1] turned out to be 3300 nM. Besides, in data set [2], the IC50 is 3 nM.
`COc1cc2c(=O)n(CCN(C)C)c3c4ccc(N)cc4ncc3c2cc1OC` [Compound 4b, 2-Amino-8,9-dimethoxy-5-[2-(N,N-dimethylamino)ethyl]-5H-dibenzo[c,h][1,6]naphthyridin-6-one] showed a melting point of 208 to 210 °C. Also, in data set [3], the IC50 turned out to be 60 nM. In addition, the “TOP1-mediated DNA Cleavage (REC, relative effective concentration)” value in data set [4] was 12. Moreover, the IC50 in data set [1] came to 2100 nM. The IC50 in data set [2] was 100 nM. Moreover, the IC50 in data set [5] came to 230 nM.
Consider `CC[C@@]1(O)C(=O)OCc2c1cc1n(c2=O)Cc2cc3ccccc3nc2-1` [CPT, Camptothecin, reference compound], for which the IC50 in data set [3] (4 days of continuous drug exposure) was 9 nM; in data set [2] (4 days of continuous drug exposure, MTT), 5 nM; in data set [5] it was above 10000 nM.
Regarding `CC[C@@]1(O)C(=O)OCc2c1cc1n(c2=O)Cc2cc3c(CN(C)C)c(O)ccc3nc2-1` [Topotecan, reference compound], the IC50 is 35 nM in data set [3], above 50000 nM in data set [1] and above 10000 nM in data set [5]. Moreover, the “TOP1-mediated DNA Cleavage (REC, relative effective concentration)” value in data set [4] is recorded as 1.
With `COc1cc2c(=O)n(CCN(C)C)c3c4cccc([N+](=O)[O-])c4ncc3c2cc1OC` [Compound 3a, 8,9-Dimethoxy-1-nitro-5-[2-(N,N-dimethylamino)ethyl]-5H-dibenzo[c,h][1,6]naphthyridin-6-one], the melting point was in the range of 257 to 258 °C. In data set [3], the IC50 amounted to 190 nM. The “TOP1-mediated DNA Cleavage (REC, relative effective concentration)” value in data set [4] is 9. Further, the IC50 in data set [1] came to 3000 nM. Also, in data set [2], the IC50 was found to be 220 nM. The IC50 in data set [5] was 2100 nM.
As for `COc1cc([C@@H]2c3cc4c(cc3[C@@H](O[C@@H]3O[C@@H]5CO[C@@H](c6cccs6)O[C@H]5[C@H](O)[C@H]3O)[C@H]3COC(=O)[C@H]23)OCO4)cc(OC)c1O` [VM-26, teniposide, reference compound], the IC50 in data set [1] stood at 280 nM.
`COc1cc2c(=O)n(CCN(C)C)c3c(cnc4cccc([N+](=O)[O-])c43)c2cc1OC` [Compound 3d, 8,9-Dimethoxy-4-nitro-5-[2-(N,N-dimethylamino)ethyl]-5H-dibenzo[c,h][1,6]-naphthyridin-6-one]: the melting point lay within 194 to 195 °C. Further, in data set [3], the IC50 amounted to 6000 nM. Further, the “TOP1-mediated DNA Cleavage (REC, relative effective concentration)” value in data set [4] is recorded as above 300. For the same compound, the IC50 in data set [1] was found to be 11500 nM. In data set [2], the IC50 was 5500 nM. Moreover, the IC50 in data set [5] worked out at 7000 nM.

(Values after patent publication US6992089B2, “Nitro and amino substituted topoisomerase agents” (Rutgers, The University of New Jersey, priority 2002, dated 2006).)
